Activity calls are given as the source filed them. The rule behind the calls is not given here.
Tests used:
MC-38 [1] = assay: Induction of immune response mediated antitumor activity in mouse MC38 cells xenografted in C57/BL mouse assessed as tumor growth inhibition at 40 mg/kg, ip administered every other day from day 6 post implantation measured every 2 days; format: functional, organism-based
[2] = Toxicity in mouse MC38 cells xenografted C57/BL mouse assessed as change in body weight at 40 mg/kg, ip administered every other day from day 6 post implantation measured every 2 days; format: organism-based; conditions: in vivo, 48 h
MC-38 [3] = assay: Immunomodulatory activity in mouse MC38 cells xenografted in C57/BL mouse assessed as increase in infiltration of CD3-positive T cells at 40 mg/kg, ip administered every other day from day 6 post implantation by DAPI staining based immunofluorescence microscopy; format: functional, organism-based
MC-38 [4] = assay: Immunomodulatory activity in mouse MC38 cells xenografted in C57/BL mouse assessed as increase in perforin at 40 mg/kg, ip administered every other day from day 6 post implantation by hematoxylin staining based immunohistochemical analysis; format: functional, organism-based
MC-38 [5] = assay: Immunomodulatory activity in mouse MC38 cells xenografted in C57/BL mouse assessed as increase in granzyme B at 40 mg/kg, ip administered every other day from day 6 post implantation by hematoxylin staining based immunohistochemical analysis; format: functional, organism-based
MC-38 [6] = assay: Immunomodulatory activity in mouse MC38 cells xenografted in C57/BL mouse assessed as increase in infiltration of CD8-positive T cells at 40 mg/kg, ip administered every other day from day 6 post implantation by DAPI staining based immunofluorescence microscopy; format: functional, organism-based
MDA-MB-231 [7] = assay: Immunomodulatory activity in human MDA-MB-231 cells cocultured with human PBMC assessed as induction of PBMC recruitment to MDA-MB-231 cells by measuring increase in activated caspase-3 at 20 uM incubated for 24 hrs by GrennNuc caspase-3 substrate based assay; format: functional, cell-based
MDA-MB-231 [8] = assay: Immunomodulatory activity in human CFDA SE-labelled MDA-MB-231 cells cocultured with PMBC assessed as induction of PBMC recruitment to MDA-MB-231 cells by measuring early apoptotic cells at 20 uM incubated for 48 hrs by propidium iodide staining based flow cytometry analysis (reference value: 0 %); format: functional
MDA-MB-231 [9] = assay: Immunomodulatory activity in human CFDA SE-labelled MDA-MB-231 cells cocultured with PMBC assessed as induction of PBMC recruitment to MDA-MB-231 cells by measuring viable cells at 20 uM incubated for 48 hrs by propidium iodide staining based flow cytometry analysis (reference value: 99.87 %); format: functional
MDA-MB-231 [10] = assay: Immunomodulatory activity in human CFDA SE-labelled MDA-MB-231 cells cocultured with PMBC assessed as induction of PBMC recruitment to MDA-MB-231 cells by measuring late apoptotic cells at 20 uM incubated for 48 hrs by propidium iodide staining based flow cytometry analysis (reference value: 0 %); format: functional
MDA-MB-231 [11] = assay: Immunomodulatory activity in human CFDA SE-labelled MDA-MB-231 cells cocultured with PMBC assessed as induction of PBMC recruitment to MDA-MB-231 cells by measuring necrotic cell at 20 uM incubated for 48 hrs by propidium iodide staining based flow cytometry analysis (reference value: 0.13 %); format: functional
[12] = Toxicity in mouse MC38 cells xenografted C57/BL mouse assessed as death at 40 mg/kg, ip administered every other day from day 6 post implantation measured on day 14; format: organism-based; conditions: in vivo, time 14 day, read-out: Activity
[13] = Induction of immune response mediated antitumor activity in mouse B16F10 cells xenografted in C57/BL mouse assessed as reduction in tumor weight at 40 mg/kg, ip administered every other day from day 6 post implantation measured every 2 days relative to control; format: functional, B16-F10; design: scale not given: the % may be the effect or the level left
[14] = Induction of apoptosis in human PBMC cells assessed as activated caspase-3 at 20 uM incubated for 24 hrs by GrennNuc caspase-3 substrate based assay; format: cell-based
B16-F10 [15] = assay: Induction of immune response mediated antitumor activity in mouse B16F10 cells xenografted in C57/BL mouse assessed as change in ratio of CD8+/CD3+ cells at 40 mg/kg, ip administered every other day from day 6 post implantation by flow cytometry; format: functional, organism-based
B16-F10 [16] = assay: Induction of immune response mediated antitumor activity in mouse B16F10 cells xenografted in C57/BL mouse assessed as change in ratio of CD3+/CD45+ cells at 40 mg/kg, ip administered every other day from day 6 post implantation by flow cytometry; format: functional, organism-based
[17] = Induction of immune response mediated antitumor activity in mouse B16F10 cells xenografted in C57/BL mouse assessed as infiltration of CD8 cells at 40 mg/kg, ip administered every other day from day 6 post implantation by flow cytometry (reference value: 26.9 %); format: functional, B16-F10
[18] = Induction of immune response mediated antitumor activity in mouse B16F10 cells xenografted in C57/BL mouse assessed as infiltration of CD3 cells at 40 mg/kg, ip administered every other day from day 6 post implantation by flow cytometry (reference value: 1.45 %); format: functional, B16-F10
[19] = Induction of immune response mediated antitumor activity in mouse B16F10 cells xenografted in C57/BL mouse assessed as infiltration of CD45 cells at 40 mg/kg, ip administered every other day from day 6 post implantation by flow cytometry (reference value: 1.81 %); format: functional, B16-F10
B16-F10 [20] = assay: Induction of immune response mediated antitumor activity in mouse B16F10 cells xenografted in C57/BL mouse coadministered with anti-CD8 antibody assessed as suppression of tumor growth at 40 mg/kg, ip administered every other day from day 6 post implantation measured every 2 days; format: functional, organism-based
[21] = Induction of immune response mediated antitumor activity in mouse B16F10 cells xenografted in C57/BL mouse assessed as reduction in tumor volume at 40 mg/kg, ip administered every other day from day 6 post implantation measured every 2 days relative to control; format: functional, B16-F10; design: scale not given: the % may be the effect or the level left
B16-F10 [22] = assay: Toxicity in mouse B16F10 cells xenografted C57/BL mouse assessed as change in body weight at 40 mg/kg, ip administered every other day from day 6 post implantation measured every 2 days; format: organism-based; conditions: in vivo, 48 h
MDA-MB-231 [23] = assay: Induction of apoptosis in human MDA-MB-231 cells assessed as activated caspase-3 at 20 uM incubated for 24 hrs by GrennNuc caspase-3 substrate based assay; format: cell-based; conditions: mda-mb-231, 24 h
MDA-MB-231 [24] = assay: Immunomodulatory activity in human MDA-MB-231 cocultured with PMBC assessed as induction of PBMC recruitment to MDA-MB-231 cells by measuring increase in cell cluster at 20 uM incubated for 12 to 48 hrs by EVOS FL digital microscopic analysis; format: functional, cell-based; conditions: time hrs 12-48
MDA-MB-231 [25] = assay: Immunomodulatory activity in human MDA-MB-231 cells expressing luciferase assessed as induction of PBMC-induced cell death incubated for 72 hrs by LDH assay; format: functional, cell-based; conditions: dose microM 0.313-80, time 72.0 hrs
MDA-MB-231 [26] = assay: Cytotoxicity against human MDA-MB-231 cells expressing luciferase assessed as reduction in cell viability at 0.312 to 80 uM incubated for 72 hrs by tecan-plate reader based luciferase assay; conditions: mda-mb-231, 72 h, dose 0.312-80 µM
MDA-MB-231 [27] = assay: Cytotoxicity against human MDA-MB-231 cells assessed as reduction in cell viability at 0.312 to 80 uM incubated for 72 hrs by MTT assay; format: cell-based; conditions: mda-mb-231, 72 h, dose 0.312-80 µM
[28] = target: T1, Programmed cell death protein 1/Programmed cell death 1 ligand 1 (Homo sapiens, UniProt Q9NZQ7); assay: Inhibition of FC-tagged PD1/His-tagged PD-L1 (unknown origin) protein-proteiinteraction incubated for 3 hrs by coimmunoprecipitation-based Western blot assay; format: protein-complex assay
[29] = target: Programmed cell death protein 1 (Homo sapiens, UniProt Q15116); assay: Binding affinity to PD1 (unknown origin) by SPR analysis
[30] = target: Programmed cell death 1 ligand 1 (Homo sapiens, UniProt Q9NZQ7); assay: Binding affinity to PDL1 (unknown origin) by SPR analysis
[31] = target: T1, Programmed cell death protein 1/Programmed cell death 1 ligand 1; assay: Inhibition of PD1-Tag2/PD-L1-Tag1 (unknown origin) protein-protein interaction preincubated for 15 mins followed by addition of anti-Tag1-Eu3+ and anti-Tag2-XL665 measured after 3 hrs by HTRF assay; format: protein-complex assay
MDA-MB-231 [32] = assay: Immunomodulatory activity in human MDA-MB-231 cells expressing luciferase assessed as induction of PBMC-induced cell death incubated for 72 hrs by tecan-plate reader based luciferase assay; format: functional; conditions: dose microM 0.313-80, time 72.0 hrs
[33] = target: Programmed cell death protein 1/Programmed cell death 1 ligand 1 (Homo sapiens) (UniProt Q15116+Q9NZQ7); assay: Inhibition of PD1-Tag2/PD-L1-Tag1 (unknown origin) protein-protein interaction at 20 uM preincubated for 15 mins followed by addition of anti-Tag1-Eu3+ and anti-Tag2-XL665 measured after 3 hrs by HTRF assay relative to control; format: protein-complex assay; conditions: time 195.0 min

T1 sequence (Q15116 whole entry): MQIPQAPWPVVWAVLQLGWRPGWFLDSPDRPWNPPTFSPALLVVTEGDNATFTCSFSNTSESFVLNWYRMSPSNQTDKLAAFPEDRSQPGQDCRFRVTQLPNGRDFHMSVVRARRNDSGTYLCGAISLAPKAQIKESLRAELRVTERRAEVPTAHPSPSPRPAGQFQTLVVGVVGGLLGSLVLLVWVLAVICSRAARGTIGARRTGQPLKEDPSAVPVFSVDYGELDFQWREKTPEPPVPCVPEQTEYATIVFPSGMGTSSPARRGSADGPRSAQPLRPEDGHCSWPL
T1 sequence (Q9NZQ7 whole entry): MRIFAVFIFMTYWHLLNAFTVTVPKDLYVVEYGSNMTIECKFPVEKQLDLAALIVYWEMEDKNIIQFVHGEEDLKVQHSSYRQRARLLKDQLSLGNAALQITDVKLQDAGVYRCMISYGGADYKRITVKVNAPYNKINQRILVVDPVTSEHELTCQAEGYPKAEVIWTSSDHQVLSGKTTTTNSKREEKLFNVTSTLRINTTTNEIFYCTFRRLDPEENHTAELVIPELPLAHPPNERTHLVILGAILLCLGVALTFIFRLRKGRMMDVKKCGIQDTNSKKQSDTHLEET
Programmed cell death protein 1, sequence (Q15116 whole entry): as the sequence (Q15116 whole entry) above
Programmed cell death 1 ligand 1, sequence (Q9NZQ7 whole entry): as the sequence (Q9NZQ7 whole entry) above

What does the source list for `Cc1c(COc2ccc(CN3CCCCC3C(=O)O)cc2Br)cccc1-c1ccccc1` (centres undefined)?
TGI (MC-38 [1]): Active; Activity [2]: Toxic; Activity (MC-38 [3]): Active; Activity (MC-38 [4]): Active; Activity (MC-38 [5]): Active; Activity (MC-38 [6]): Active; Activity (MDA-MB-231 [7]): Active; Activity (MDA-MB-231 [8]): 55%; Activity (MDA-MB-231 [9]): 0.31%; Activity (MDA-MB-231 [10]): 44.69%; Activity (MDA-MB-231 [11]): 0%; mortality at 336 h [12]: 75%

What does the source list for `CC(NCCCC[C@@H]1NC(=O)[C@@H](Cc2ccccc2)NC(=O)[C@H](CC(C)C)NC(=O)[C@H](CC(=O)O)NC(=O)[C@H]([C@@H](C)O)NC(=O)[C@@H]2CCCN2C(=O)[C@@H](Cc2c[nH]c3ccccc23)NC(=O)[C@H](CC(C)C)NC(=O)[C@H](CCCNC(=N)N)NC(=O)[C@H](C(C)C)NC1=O)=C1C(=O)CC(C)(C)CC1=O`?
Activity [13]: 64.9%; Activity [14]: Non-Toxic; Activity (B16-F10 [15]): inactive; Activity (B16-F10 [16]): inactive; Activity [17]: 36.5%; Activity [18]: 5.21%; Activity [19]: 13.3%; Activity (B16-F10 [20]): inactive; Activity [21]: 54.8%; Activity (B16-F10 [22]): Non-Toxic; TGI (MC-38 [1]): Active; Activity [2]: Non-Toxic; Activity (MC-38 [3]): Active; Activity (MC-38 [4]): Active; Activity (MC-38 [5]): Active; Activity (MC-38 [6]): Active; Activity (MDA-MB-231 [7]): Active; Activity (MDA-MB-231 [23]): Non-Toxic; Activity (MDA-MB-231 [24]): Active; Activity (MDA-MB-231 [8]): 42.33%; Activity (MDA-MB-231 [9]): 0.46%; Activity (MDA-MB-231 [10]): 57.03%; Activity (MDA-MB-231 [11]): 0%; Activity (MDA-MB-231 [25]): Dose-dependent effect; Activity (MDA-MB-231 [26]): Non-Toxic; Activity (MDA-MB-231 [27]): Non-Toxic; IC50 [28]: 0.45 µM; Kd [29]: 1660 µM; Kd [30]: 5.67 µM; IC50 [31]: 1.42 µM; Activity (MDA-MB-231 [32]): Dose-dependent effect; inhibition [33]: 95.8%
